Target: T1, Pyruvate kinase M2 (PKM2) (Mus musculus, UniProt P52480)
T1 construct: gene Pkm; full length recombinant mouse PKM2 (M2 isoform; pET-28a, from pLHCX-Flag-mPKM2)
Test: LC-MS/MS peptide mapping of the covalent adduct on recombinant PKM2; competition with biotin probe; pyruvate kinase activity assay (IC50)
Assay type: biochemical

T1 sequence (P52480 whole entry, canonical isoform): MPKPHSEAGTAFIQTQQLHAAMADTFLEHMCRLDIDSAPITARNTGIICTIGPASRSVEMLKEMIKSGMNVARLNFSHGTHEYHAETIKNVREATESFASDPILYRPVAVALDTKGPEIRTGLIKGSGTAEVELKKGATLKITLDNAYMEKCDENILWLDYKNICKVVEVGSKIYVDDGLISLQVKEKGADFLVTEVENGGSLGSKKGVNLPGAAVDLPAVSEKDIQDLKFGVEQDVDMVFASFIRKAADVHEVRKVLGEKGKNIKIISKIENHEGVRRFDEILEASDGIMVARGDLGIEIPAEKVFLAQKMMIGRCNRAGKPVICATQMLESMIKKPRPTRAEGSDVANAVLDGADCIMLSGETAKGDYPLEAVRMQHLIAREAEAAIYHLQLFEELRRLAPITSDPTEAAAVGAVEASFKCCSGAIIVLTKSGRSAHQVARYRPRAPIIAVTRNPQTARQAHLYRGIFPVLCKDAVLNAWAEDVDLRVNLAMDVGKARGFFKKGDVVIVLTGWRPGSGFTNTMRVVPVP

`CC1=C(O)C(=O)C=C2C1=CC=C1[C@@]2(C)CC[C@@]2(C)[C@@H]3C[C@](C)(C(=O)O)CC[C@]3(C)CC[C@]12C` [celastrol] showed an IC50 of 305 µM.
